Data published in patent US7884117B2, “Carbonylamino pyrrolopyrazoles, potent kinase inhibitors” (Pfizer Inc., priority 2005, dated 2011).

The compounds below were run against T1, PAK4 Kinase domain (PAK4 KD) (Homo sapiens, UniProt O96013) (assay: PAK4 kinase domain enzymatic assay (PK/LDH-coupled, Ki)). Settings: not given.
T1 construct: Cloning, expression, and purification of recombinant PAK4 Kinase domain (PAK4 KD); His tag (pET28a(+)/pET24a(+), Ni-NTA purification) (N, cleaved yes); GST (pGST4.5, glutathione column) (N, cleaved yes); made in house; host or cells: E. coli BL21(DE3)
T1 sequence (O96013 321-572 limits assumed): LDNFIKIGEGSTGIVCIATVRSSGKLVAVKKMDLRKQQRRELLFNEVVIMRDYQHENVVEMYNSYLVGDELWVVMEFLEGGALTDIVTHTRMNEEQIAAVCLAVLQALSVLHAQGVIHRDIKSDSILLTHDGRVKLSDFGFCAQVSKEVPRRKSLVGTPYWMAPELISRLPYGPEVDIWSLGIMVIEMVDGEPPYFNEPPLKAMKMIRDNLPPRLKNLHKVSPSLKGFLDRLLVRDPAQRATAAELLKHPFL
Type: biochemical
With CCc1ccc(C(=O)Nc2n[nH]c3c2CN(C(=O)NC2CC2c2ccccc2)C3(C)C)cc1 (stereo not drawn) [Example 114, 3-(4-ethylbenzamido)-6,6-dimethyl-N-[trans-(2-phenylcyclopropyl)]pyrrolo[3,4-c]pyrazole-5(1H,4H,6H)-carboxamide] the inhibition at 1 µM was 70%.
In the case of CN(C)C[C@@H](NC(=O)N1Cc2c(NC(=O)C3COc4ccccc4O3)n[nH]c2C1(C)C)c1ccccc1 (stereo partly drawn) [Example 112, 3-(2,3-dihydrobenzo[b][1,4]dioxine-2-carboxamido)-N-((S)-2-(dimethylamino)-1-phenylethyl)-6,6-dimethylpyrrolo[3,4-c]pyrazole-5(1H,4H,6H)-carboxamide], the inhibition at 1 µM is reported as 66%.
With CN(C)C[C@@H](NC(=O)N1Cc2c(NC(=O)c3cnccn3)n[nH]c2C1(C)C)c1ccccc1 [Example 111, (S)-N-(2-(dimethylamino)-1-phenylethyl)-6,6-dimethyl-3-(pyrazine-2-carboxamido)pyrrolo[3,4-c]pyrazole-5 (1H,4H,6H)-carboxamide] the inhibition at 1 µM was 42%.
Work on Cc1cc(C(=O)Nc2n[nH]c3c2CN(C(=O)NC2CC2c2ccccc2)C3(C)C)n(C)n1 (stereo not drawn) [Example 113, 3-(1,3-dimethyl-1H-pyrazole-5-carboxamido)-6,6-dimethyl-N-[trans-(2-phenylcyclopropyl)]pyrrolo[3,4-c]pyrazole-5(1H,4H,6H)-carboxamide] yielded an inhibition at 1 µM of 65%.

Same assay, conditions: PAK4 Kinase Domain
CCC(NC(=O)N1Cc2c(NC(=O)c3ccccc3)n[nH]c2C1(C)C)c1ccccc1 (stereo not drawn) [Example 62, 3-(benzoylamino)-6,6-dimethyl-N-(1-phenylpropyl)-4,6-dihydropyrrolo[3,4-c]pyrazole-5(1H)-carboxamide] showed a Ki of 0.308 µM.
Work on CC1(C)c2[nH]nc(NC(=O)c3ccccc3)c2CN1C(=O)N[C@H](CN)c1ccccc1 [Example 64, N-[(1S)-2-amino-1-phenylethyl]-3-(benzoylamino)-6,6-dimethyl-4,6-dihydropyrrolo[3,4-c]pyrazole-5(1H)-carboxamide] yielded a Ki of 0.0193 µM.
For CC1(C)c2[nH]nc(NC(=O)Cc3ccc(F)cc3)c2CN1C(=O)N[C@@H]1C[C@H]1c1ccccc1 (relative stereo) [Example 70, 3-{[(4-fluorophenyl)acetyl]amino}-6,6-dimethyl-N-[trans-2-phenylcyclopropyl]-4,6-dihydropyrrolo[3,4-c]pyrazole-5(1H)-carboxamide], the Ki was 0.223 µM.
Work on CN(C)C[C@H](c1ccccc1)N(C)C(=O)N1Cc2c(NC(=O)c3ccccc3)n[nH]c2C1(C)C [Example 103, 3-(benzoylamino)-N-[(1S)-2-(dimethylamino)-1-phenylethyl]-N,6,6-trimethyl-4,6-dihydropyrrolo[3,4-c]pyrazole-5(1H)-carboxamide] yielded a Ki of 0.512 µM.
Compound COCC(=O)Nc1n[nH]c2c1CN(C(=O)O[C@H](CN(C)C)c1ccccc1)C2(C)C [Example 14, (1S)-2-(dimethylamino)-1-phenylethyl 3-[(methoxyacetyl)amino]-6,6-dimethyl-4,6-dihydropyrrolo[3,4-c]pyrazole-5(1H)-carboxylate] has a Ki of 0.356 µM.
CC1(C)c2[nH]nc(NC(=O)c3ccc(F)cc3)c2CN1C(=O)N[C@H](CN)c1ccccc1 [Example 115, N-[(1S)-2-amino-1-phenylethyl]-3-[(4-fluorobenzoyl)amino]-6,6-dimethyl-4,6-dihydropyrrolo[3,4-c]pyrazole-5(1H)-carboxamide] gave a Ki of 0.0208 µM.
With CC1(C)c2[nH]nc(NC(=O)c3ccc(F)cc3)c2CN1C(=O)NC(CN1CCOCC1)c1ccccc1 (stereo not drawn) [Example 102, 3-[(4-fluorobenzoyl)amino]-6,6-dimethyl-N-(2-morpholin-4-yl-1-phenylethyl)-4,6-dihydropyrrolo[3,4-c]pyrazole-5(1H)-carboxamide] the Ki was 0.621 µM.
CC1(C)c2[nH]nc(NC(=O)c3ccccc3)c2CN1C(=O)NC(CN1CCCC1)c1ccccc1 (stereo not drawn) [Example 60, 3-(benzoylamino)-6,6-dimethyl-N-(1-phenyl-2-pyrrolidin-1-ylethyl)-4,6-dihydropyrrolo[3,4-c]pyrazole-5(1H)-carboxamide] was tested, and the Ki was 0.267 µM.
CCc1cc(C(=O)Nc2n[nH]c3c2CN(C(=O)N[C@H](CN(C)C)c2ccccc2)C3(C)C)no1 [Example 105, (S)-N-(2-(dimethylamino)-1-phenyl)-3-(5-ethylisoxazole-3-carboxamido)-6,6-dimethylpyrrolo [3,4-c]pyrazole-5(1H,4H,6H)-carboxamide] showed a Ki of 0.121 µM.
CCC(=O)Nc1n[nH]c2c1CN(C(=O)O[C@H](CN(C)C)c1ccccc1)C2(C)C [Example 118, (S)-2-(dimethylamino)-1-phenylethyl 6,6-dimethyl-3-propionamidopyrrolo[3,4-c]pyrazole-5(1H,4H,6H)-carboxylate] was tested, and the Ki was 0.226 µM.
CC1(C)c2[nH]nc(NC(=O)c3ccccc3)c2CN1C(=O)N[C@@H]1C[C@H]1c1ccccc1 (relative stereo) [Example 58, 3-(benzoylamino)-6,6-dimethyl-N-[trans-2-phenylcyclopropyl]-4,6-dihydropyrrolo[3,4-c]pyrazole-5(1H)-carboxamide] was tested, and the Ki was 0.096 µM.
CCC(C(=O)Nc1n[nH]c2c1CN(C(=O)N[C@@H]1C[C@H]1c1ccccc1)C2(C)C)c1ccccc1 (relative stereo) [Example 107, 6,6-dimethyl-3-[(2-phenylbutanoyl)amino]-N-[trans-2-phenylcyclopropyl]-4,6-dihydropyrrolo[3,4-c]pyrazole-5(1H)-carboxamide] showed a Ki of 0.26 µM.
In the case of C[C@@H](CN(C)C)OC(=O)N1Cc2c(NC(=O)c3ccc(F)cc3F)n[nH]c2C1(C)C [Example 37, (1S)-2-(dimethylamino)-1-methylethyl 3-[(2,4-difluorobenzoyl)amino]-6,6-dimethyl-4,6-dihydropyrrolo[3,4-c]pyrazole-5(1H)-carboxylate], the Ki is reported as 0.564 µM.
CN(C)CC(CC(=O)N1Cc2c(NC(=O)c3ccc(F)cc3)n[nH]c2C1(C)C)c1ccccc1 (stereo not drawn) [Example 66, N-{5-[4-(dimethylamino)-3-phenylbutanoyl]-6,6-dimethyl-1,4,5,6-tetrahydropyrrolo[3,4-c]pyrazol-3-yl}-4-fluorobenzamide] was tested, and the Ki was 0.556 µM.
In the case of CN(C)C[C@@H](OC(=O)N1Cc2c(NC(=O)c3ccccc3F)n[nH]c2C1(C)C)C1CCCCC1 [Example 33, (1S)-1-cyclohexyl-2-(dimethylamino)ethyl 3-[(2-fluorobenzoyl)amino]-6,6-dimethyl-4,6-dihydropyrrolo[3,4-c]pyrazole-5(1H)-carboxylate], the Ki is reported as 0.22 µM.
Compound CC(C)[C@@H](CN(C)C)OC(=O)N1Cc2c(NC(=O)c3ccccc3)n[nH]c2C1(C)C [Example 74, (1S)-1-[(dimethylamino)methyl]-2-methylpropyl 3-(benzoylamino)-6,6-dimethyl-4,6-dihydropyrrolo[3,4-c]pyrazole-5(1H)-carboxylate] has a Ki of 0.475 µM.
Work on COc1ccc(C(=O)Nc2n[nH]c3c2CN(C(=O)N[C@@H]2C[C@H]2c2ccccc2)C3(C)C)cc1OC (relative stereo) [Example 109, 3-[(3,4-dimethoxybenzoyl)amino]-6,6-dimethyl-N-[trans-2-phenyl-cyclopropyl]-4,6-dihydropyrrolo[3,4-c]pyrazole-5(1H)-carboxamide] yielded a Ki of 0.176 µM.
In the case of CC1(C)c2[nH]nc(NC(=O)c3ccccc3)c2CN1C(=O)NC1CCN(Cc2ccccc2)C1 (stereo not drawn) [Example 59, 3-(benzoylamino)-N-(1-benzylpyrrolidin-3-yl)-6,6-dimethyl-4,6-dihydropyrrolo[3,4-c]pyrazole-5(1H)-carboxamide], the Ki is reported as 0.448 µM.
Cc1ccc(Cl)c(C(=O)Nc2n[nH]c3c2CN(C(=O)N[C@H](CN(C)C)c2ccccc2)C3(C)C)c1F [Example 110, (S)-3-(6-chloro-2-fluoro-3-methylbenzamido)-N-(2-(dimethylamino)-1-phenylethyl)-6,6-dimethylpyrrolo[3,4-c]pyrazole-5(1H,4H,6H)-carboxamide] showed a Ki of 0.0817 µM.
In the case of COc1ccc(CC(=O)Nc2n[nH]c3c2CN(C(=O)N[C@@H]2C[C@H]2c2ccccc2)C3(C)C)cc1 (relative stereo) [Example 101, 3-{[(4-methoxyphenyl)acetyl]amino}-6,6-dimethyl-N-[trans-2-phenylcyclopropyl]-4,6-dihydropyrrolo[3,4-c]pyrazole-5(1H)-carboxamide], the Ki is reported as 0.113 µM.
With CC(C)C[C@@H](CN(C)C)OC(=O)N1Cc2c(NC(=O)c3ccccc3F)n[nH]c2C1(C)C [Example 78, (1S)-1-[(dimethylamino)methyl]-3-methylbutyl 3-[(2-fluorobenzoyl)amino]-6,6-dimethyl-4,6-dihydropyrrolo[3,4-c]pyrazole-5(1H)-carboxylate] the Ki was 0.284 µM.
For CN(C)[C@H](COC(=O)N1Cc2c(NC(=O)c3ccc(F)cc3)n[nH]c2C1(C)C)c1ccccc1 [Example 42, (S)-2-(dimethylamino)-2-phenylethyl 3-[(4-fluorobenzoyl)amino]-6,6-dimethyl-4,6-dihydropyrrolo[3,4-c]pyrazole-5(1H)-carboxylate], the Ki was 0.955 µM.
CN(C)CC(CC(=O)N1Cc2c(NC(=O)c3ccccc3)n[nH]c2C1(C)C)c1ccc(Cl)cc1 (stereo not drawn) [Example 67, N-{5-[3-(4-chlorophenyl)-4-(dimethylamino)butanoyl]-6,6-dimethyl-1,4,5,6-tetrahydropyrrolo[3,4-c]pyrazol-3-yl}benzamide] gave a Ki of 0.193 µM.
Compound CC[C@@H](NC(=O)N1Cc2c(NC(=O)c3ccccc3)n[nH]c2C1(C)C)c1ccccc1 [Example 63, 3-(benzoylamino)-6,6-dimethyl-N-[(1R)-1-phenylpropyl]-4,6-dihydropyrrolo[3,4-c]pyrazole-5(1H)-carboxamide] has a Ki of 0.178 µM.
CN(C)C[C@@H](OC(=O)N1Cc2c(NC(=O)C3CCOCC3)n[nH]c2C1(C)C)c1ccccc1 [Example 91, (S)-2-(dimethylamino)-1-phenylethyl 6,6-dimethyl-3-(tetrahydro-2H-pyran-4-carboxamido)pyrrolo[3,4-c]pyrazole-5(1H,4H,6H)-carboxylate] showed a Ki of 0.286 µM.
CC1(C)c2[nH]nc(NC(=O)c3ccccc3)c2CN1C(=O)NC1CCCN(Cc2ccccc2)C1 (stereo not drawn) [Example 61, 3-(benzoylamino)-N-(1-benzylpiperidin-3-yl)-6,6-dimethyl-4,6-dihydropyrrolo[3,4-c]pyrazole-5(1H)-carboxamide] was tested, and the Ki was 0.444 µM.
